MIC data for seven molecules are collected here from ChEMBL document CHEMBL1134013, “Synthesis and biological evaluation of benzo[b]naphthyridones, a series of new topical antibacterial agents” (2001).

As usually defined, the MIC is the least concentration at which growth counts as inhibited. A lower MIC goes with a more susceptible organism.

One experiment relates to Staphylococcus hominis. As to the kind of experiment: Minimum inhibitory concentration against Quinolone sensitive Staphylococcus hominis IP8203 Strain. In kind it is functional.
The test system of the next experiment is Staphylococcus aureus. The experiment is described as follows: Minimum inhibitory concentration against Quinolone Resistant Staphylococcus aureus LF11C128B Strain. In kind it is functional.

Converted amounts (≈) assume the structure as drawn.

Take `Cn1cc(C(=O)O)c(=O)c2cc3cc(F)c(N4CCCCCCC4)cc3nc21`: the minimum inhibitory concentration (MIC) in the experiment on Staphylococcus hominis and in the experiment on Staphylococcus aureus was 1 µg/mL (≈ 2.61 µM) throughout.
`CSCc1cccc(N2CCN(c3cc4nc5c(cc4cc3F)c(=O)c(C(=O)O)cn5C)CC2)c1`: the MIC against Staphylococcus hominis and with Staphylococcus aureus was 4 µg/mL (≈ 8.12 µM) each time.
Consider `Cn1cc(C(=O)O)c(=O)c2cc3cc(F)c(N4CCN(Cc5ccc(F)cc5)CC4)cc3nc21`, for which the MIC is 0.5 µg/mL (≈ 1.08 µM) in the experiment with Staphylococcus hominis and 1 µg/mL (≈ 2.15 µM) with Staphylococcus aureus.
In the case of `C/C(=C\C(=O)OCCCCCCCCC(=O)[O-])C[C@@H]1OC[C@H](C[C@@H]2O[C@H]2[C@@H](C)[C@H](C)O)[C@@H](O)[C@H]1O.C/C(=C\C(=O)OCCCCCCCCC(=O)[O-])C[C@@H]1OC[C@H](C[C@@H]2O[C@H]2[C@@H](C)[C@H](C)O)[C@@H](O)[C@H]1O.[Ca+2]`, the MIC with Staphylococcus hominis and with Staphylococcus aureus was 0.5 µg/mL in each case.
On to `C[N+](C)(C)CCO.Cn1cc(C(=O)[O-])c(=O)c2cc3cc(F)c(N4CCN(c5ccc(F)cc5)CC4)cc3nc21`, for which the MIC amounted to 0.25 µg/mL against Staphylococcus hominis and 0.5 µg/mL against Staphylococcus aureus.
On the same counts, the results for `Cn1cc(C(=O)O)c(=O)c2cc3cc(F)c(NC4CCCCC4)cc3nc21` are 1 µg/mL (≈ 2.71 µM) and 1 µg/mL (≈ 2.71 µM).
Consider `CCn1cc(C(=O)O)c(=O)c2cc(F)c(N3CCN(C)CC3)cc21` [PEFLOXACIN], for which the MIC against Staphylococcus hominis stood at 0.5 µg/mL (≈ 1.5 µM).
